Test results: patent publication EP0744402B1, “POTASSIUM SALT OF BIPHENYLMETHANE DERIVATIVE AND MEDICINE CONTAINING THE SAME” (priority 1994, dated 1995)
Structures can show the parent of a compound that is named as a salt.

Legend:
[1] = Measurement of bioavailability in rat; format: in vivo; settings: SD male rats, fasted overnight, 3 mg/kg intravenously (physiological saline) and orally (0.5% carboxymethyl cellulose), from plasma AUC by HPLC
Experimental: Measurement of bioavailability in rat
SD Male rats of 6 weeks old (5 rats a group) were fasted overnight. The test compound was then administered to each of the rats at 3 mg/kg intravenously after dissolved in physiological saline and orally after suspended in 0.5% carboxymethyl cellulose, respectively. After administration, blood was collected periodically. From the blood so collected, plasma was separated by centrifugation. The test compound in the plasma was determined by high-performance liquid chromatography and based on it, areas under concentration (AUC) in intravenous administration and oral administration were found respectively. Bioavailability (BA) of the test compound for the rats was calculated in accordance with the following equation.

[2] = test system: angiotensin II; test: Inhibition of the angiotensin II-induced blood pressure increase in conscious normotensive rats after oral administration (invasive); format: in vivo, rat; settings: male SD rats; angiotensin II intravenously 0.1 µg/kg; test compound orally 1.0 mg/kg in 0.5% carboxymethyl cellulose
Experimental: On the day before the test, a cannula for the measurement of blood pressure and another cannula for the administration of a solution of angiotensin II (AII) in physiological saline (intravenously administered at 0.1 µg/kg) were inserted into the right femoral artery and the right femoral vein of each of the male SD rats (body weight: 200-350 g), respectively, under anesthesia. The rats were maintained on food and water ad libitum until immediately before the test was started. On the testing day, the former cannula so inserted was connected to a blood pressure transducer and the mean blood pressure was recorded on a polygraph. The solution of AII in physiological saline was then intravenously administered to each of the rats to raise its blood pressure. The blood-pressure raising response was repeated several times. […] In accordance with the following equation, an inhibitory rate (%) of blood pressure increase was calculated from the blood pressure increases before and after the administration of the test compound.

[3] = test system: renal hypertensive rats; test: Antihypertensive action on renal hypertensive rats (invasive); format: in vivo, rat; settings: male SD renal hypertensive rats, mean blood pressure, orally 0.3 mg/kg, suspended in 0.5% carboxymethyl cellulose
Text: Antihypertensive action on renal hypertensive rats (invasive)
Renal hypertensive rats were each prepared by constricting the left renal artery of a male SD rat (age: 6 weeks old, body weight: 190-220 g) with a silver clip (inner diameter: 0.017 inch) under anesthesia. Antihypertensive action was studied employing the rats whose mean blood pressure arose to 150 mmHg or higher in 4-8 weeks after the constriction of the renal artery. On the day before the test, a cannula for measure of blood pressure was inserted into the femoral artery of each of the renal hypertensive rats under anesthesia and was allowed to remain in the artery. The rats were maintained on food and water ad libitum until immediately before the test was started. The cannula so inserted was connected to a blood pressure transducer and a mean blood pressure was recorded on a polygraph. After the blood pressure became stable, the test compound which was suspended in 0.5% carboxymethyl cellulose was orally administered to each of the rats at 0.3 mg/kg. In accordance with the following equation, a decreased rate of blood pressure (%) was calculated from the blood pressure values before and after the administration of the test compound.

Row | Compound | BA (%) [1] | Inhibition of blood pressure increase (%) [2] | Rate of decrease in blood pressure ([3]; 0.3 mg/kg) | Rate of decrease in blood pressure [3]
1 | CCc1nn(Cc2ccc(-c3ccccc3-c3nnn[nH]3)cc2)c(=NC(=O)C2=C(C(=O)O)CCC2)s1 [Compound A, dipotassium 2-[[5-ethyl-3-[2'-(1H-tetrazol-5-yl)biphenyl-4-yl]methyl-1,3,4-thiadiazolin-2-ylidene]aminocarbonyl]-1-cyclopentenecarboxylate] | 42.8% | 84.6% | 23.0% | –
2 | CCc1nn(Cc2ccc(-c3ccccc3-c3nnn[nH]3)cc2)c(=NC(=O)C2=C(C(=O)[O-])CCC2)s1.[K+] [Compound B, monopotassium 2-[[5-ethyl-3-[2' -(1H-tetrazol-5-yl)biphenyl-4-yl]methyl-1,3,4-thiadiazolin-2-ylidene]aminocarbonyl]-1-cyclopentenecarboxylate] | – | – | – | 19.8%
3 | CCc1nn(Cc2ccc(-c3ccccc3-c3nnn[nH]3)cc2)c(=NC(=O)C2=C(C(=O)O)CCC2)s1 [Compound (2), 2-[[5-Ethyl-3-[2'-(1H-tetrazol-5-yl)biphenyl-4-yl]methyl-1,3,4-thiadiazolin-2-ylidene]aminocarbonyl]-1-cyclopentenecarboxylic acid] | 12.0% | 54.2% | – | 10.8%
4 | CCc1nn(Cc2ccc(-c3ccccc3-c3nn[nH]n3)cc2)c(=NC(=O)C2=C(C(=O)O)CCC2)s1 [Control 2Na salt, reference compound] | – | – | 12.9% | –
